ChEMBL document CHEMBL3352459, “Synthesis and evaluation of N-acyl-substituted 1,2-benzisothiazol-3-one derivatives as caspase-3 inhibitors” (Bioorg Med Chem, 2014)
pIC50: −log10 of the molar value. Residues, ends and D or L forms follow the SMILES beside them. *: point of attachment. Cbz = O=C(OCc1ccccc1)*; CH2F = FC*

Legend:
Caspase-7 = target: T1, Caspase-7 (Homo sapiens, UniProt P55210); test: Inhibition of recombinant human caspase-7 activity using Ac-DEVD-AMC as substrate preincubated for 10 mins by fluorescence assay
T1 sequence (P55210 whole entry): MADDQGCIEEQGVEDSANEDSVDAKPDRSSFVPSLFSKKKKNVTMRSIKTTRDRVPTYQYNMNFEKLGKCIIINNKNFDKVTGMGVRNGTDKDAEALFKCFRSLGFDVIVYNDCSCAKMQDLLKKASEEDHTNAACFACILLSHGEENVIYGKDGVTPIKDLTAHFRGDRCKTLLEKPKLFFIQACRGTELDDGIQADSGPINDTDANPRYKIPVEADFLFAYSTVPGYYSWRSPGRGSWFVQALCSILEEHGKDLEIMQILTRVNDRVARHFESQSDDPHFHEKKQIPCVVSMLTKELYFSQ

Caspase-3 = target: T2, Caspase-3 (Homo sapiens, UniProt P42574); test: Inhibition of recombinant human caspase-3 activity using Ac-DEVD-AMC as substrate preincubated for 10 mins by fluorescence assay
T2 sequence (P42574 whole entry): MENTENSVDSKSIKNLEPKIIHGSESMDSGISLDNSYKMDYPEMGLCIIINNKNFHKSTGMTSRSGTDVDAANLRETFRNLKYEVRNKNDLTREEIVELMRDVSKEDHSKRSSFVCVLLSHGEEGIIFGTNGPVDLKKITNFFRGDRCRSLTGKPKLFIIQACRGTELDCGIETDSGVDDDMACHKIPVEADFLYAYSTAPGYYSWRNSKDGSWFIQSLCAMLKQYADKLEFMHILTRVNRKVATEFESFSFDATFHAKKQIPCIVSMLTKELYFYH

Jurkat [1] = test: Antiapoptotic activity in camptothecin-induced human Jurkat cells assessed as apoptotic cells at 10 uM after 2 hrs using Annexin V-FITC and 7-AAD by flow cytometry relative to control; assay type: functional
Jurkat [2] = test: Antiapoptotic activity in camptothecin-induced human Jurkat cells assessed as apoptotic cells at 50 uM after 2 hrs using Annexin V-FITC and 7-AAD by flow cytometry relative to control; assay type: functional

SMILES | pIC50 (Caspase-7) | pIC50 (Caspase-3) | Activity (Jurkat [1]) [%] | Activity (Jurkat [2]) [%]
O=C(Nc1ccc(N2CCOCC2)cc1)n1sc2ccccc2c1=O | 6.79 | 6.97 | – | –
O=C(Cc1ccccc1)n1sc2ccccc2c1=O | 6.57 | 6.53 | – | –
Cc1ccccc1CC(=O)n1sc2ccccc2c1=O | 6.43 | 6.70 | – | –
Cc1cccc(CC(=O)n2sc3ccccc3c2=O)c1 | 6.74 | 6.47 | – | –
Cc1ccc(CC(=O)n2sc3ccccc3c2=O)cc1 | 6.74 | 6.67 | – | –
COc1ccccc1CC(=O)n1sc2ccccc2c1=O | 6.68 | 6.66 | – | –
COc1cccc(CC(=O)n2sc3ccccc3c2=O)c1 | 6.68 | 6.26 | – | –
COc1ccc(CC(=O)n2sc3ccccc3c2=O)cc1 | 6.67 | 5.87 | – | –
O=C(Cc1ccccc1F)n1sc2ccccc2c1=O | 6.91 | 6.73 | – | –
O=C(Cc1cccc(F)c1)n1sc2ccccc2c1=O | 6.34 | 6.05 | – | –
O=C(Cc1ccc(F)cc1)n1sc2ccccc2c1=O | 6.22 | 5.92 | – | –
O=C(Cc1ccccc1Cl)n1sc2ccccc2c1=O | 6.84 | 6.72 | – | –
O=C(Cc1cccc(Cl)c1)n1sc2ccccc2c1=O | 6.22 | 6.57 | – | –
O=C(Cc1ccc(Cl)cc1)n1sc2ccccc2c1=O | 6.23 | 6.67 | – | –
O=C(Cc1ccc(O)cc1)n1sc2ccccc2c1=O | 6.48 | 6.49 | – | –
O=C(Cc1ccc(Cl)c(Cl)c1)n1sc2ccccc2c1=O | 6.70 | 6.18 | – | –
O=C(CCc1ccccc1)n1sc2ccccc2c1=O | 6.95 | 6.96 | – | –
Cc1cccc(CCC(=O)n2sc3ccccc3c2=O)c1 | 6.96 | 7.02 | – | –
Cc1ccc(CCC(=O)n2sc3ccccc3c2=O)cc1 | 7.14 | 6.92 | – | –
COc1ccccc1CCC(=O)n1sc2ccccc2c1=O | 7.20 | 6.86 | – | –

SMILES | pIC50 (Caspase-7) | pIC50 (Caspase-3) | Activity (Jurkat [1]) [%] | Activity (Jurkat [2]) [%]
COc1cccc(CCC(=O)n2sc3ccccc3c2=O)c1 | 7.27 | 7.46 | 36.6 | 100
COc1ccc(CCC(=O)n2sc3ccccc3c2=O)cc1 | 7.28 | 7.30 | 37.5 | 100
O=C(CCc1ccccc1F)n1sc2ccccc2c1=O | 7.06 | 6.89 | – | –
O=C(CCc1cccc(F)c1)n1sc2ccccc2c1=O | 7.11 | 7.06 | – | –
O=C(CCc1ccc(F)cc1)n1sc2ccccc2c1=O | 7.22 | 6.95 | – | –
O=C(CCc1ccccc1Cl)n1sc2ccccc2c1=O | 6.80 | 7.33 | – | –
O=C(CCc1ccc(Cl)cc1)n1sc2ccccc2c1=O | 7.14 | 7.24 | – | –
O=C(CCCc1ccccc1)n1sc2ccccc2c1=O | 6.78 | 6.74 | – | –
Cc1ccc(CCCC(=O)n2sc3ccccc3c2=O)cc1 | 7.01 | 6.58 | – | –
COc1ccc(CCCC(=O)n2sc3ccccc3c2=O)cc1 | 7.13 | 6.41 | – | –
O=C(CCCCc1ccccc1)n1sc2ccccc2c1=O | 7.00 | 6.51 | – | –
O=C(Cc1cccs1)n1sc2ccccc2c1=O | 4.74 | 4.49 | – | –
O=C(CCC(=O)n1sc2ccccc2c1=O)c1cccs1 | 7.25 | 6.63 | – | –
O=C(CCCc1cccs1)n1sc2ccccc2c1=O | 6.94 | 6.90 | – | –
O=C(Cc1ccc(-c2ccccc2)cc1)n1sc2ccccc2c1=O | 6.94 | 6.85 | – | –
O=C(Cc1ccc2ccccc2c1)n1sc2ccccc2c1=O | 6.53 | 6.58 | – | –
O=C(Cc1ccc2c(c1)CCO2)n1sc2ccccc2c1=O | 6.73 | 6.65 | – | –
CC(=O)N[C@@H](CC(=O)O)C(=O)N[C@@H](CCC(=O)O)C(=O)N[C@H](C(=O)N[C@H](C=O)CC(=O)O)C(C)C | 6.81 | – | – | –
COC(=O)C[C@H](NC(=O)[C@H](C)NC(=O)[C@@H](NC(=O)OCc1ccccc1)C(C)C)C(=O)CF (Cbz-Val-Ala-Asp(OMe)-CH2F) | – | – | 40.2 | –
